# Results as given in patent US20160281050A1, “METHODS FOR TREATING A CULTURE OF HAEMATOCOCCUS PLUVIALIS FOR CONTAMINATION USING SALT AND HYDROGEN PEROXIDE” (HELIAE DEVELOPMENT LLC, priority 2015, published 2016).
# Key:
# pure chytrid culture = experiment: Chytrid tolerance: pure chytrid culture in well plate, observed under a microscope (Examples 13-14); format: cell-based; conditions: 40 ppm
# Method: Experiments were performed to determine chytrid tolerance to bleach, salt, Lufenuron (chemical biocide), and Rid Fungus (blend of natural organic herbs) for evaluation as a treatment for chytrids. A pure chytrid culture in a well plate was treated every 24 hours and observed under a microscope to determine the effect. An untreated culture was used as a control for comparison purposes. Qualitative assessments and quantitative estimates were made by visual observation under a microscope.
# Several concentrations of salt and Rid Fungus (blend of organic herbs) were further investigated as a chytrid treatment, as in Example 13. A pure chytrid culture in a well plate was treated and visually observed under a microscope to determine the effect. An untreated culture was used as a control for comparison purposes.
# chytrids = experiment: Haematococcus red cyst cells infected with chytrids treated in well plates (Example 15); format: cell-based
# Method: Several concentrations of bleach and Lufenuron were further investigated for their effectiveness as chytrid treatments for Haematococcus pluvialis during culturing. Cultures of Haematococcus pluvialis (Strain 1) red cyst cells infected with chytrids were treated in well plates (0.5 mL volume) with bleach or Lufenuron to evaluate the effect on the Haematococcus cells if bleach or Lufenuron were to be used as a contamination treatment. A first control culture of Haematococcus red cyst cells absent of chytrids and a second control culture of healthy Haematococcus red cyst cells inoculated with chytrids were used as comparisons for the treatments. The cultures were treated with bleach at or less than the tolerance level of Haematococcus: 0.01, 0.02 and 0.03 mL/L of 12.5% stock concentration bleach (calculated concentration 0.00125, 0.0025, and 0.00375 mL/L), or different concentrations of Lufenuron (0.01, 0.1 and 1% of culture volume). The cultures were observed under a microscope during the experiment to determine effectiveness.
# [1] = system: chytrid zoospores and sporangia; conditions: 1% dose of a solution comprising 50% NaOH; 25, 40, and 50° C
# Method: A solution comprising 50% sodium hydroxide (NaOH) was evaluated as a treatment for chytrids that could be applied to empty reactors in order to clean them for subsequent batches. A pure culture of chytrid zoospores and sporangia was treated with a 1% dose of a solution comprising 50% NaOH at temperatures of 25, 40, and 50° C. The cultures were then observed under a microscope for a reduction in the chytrid zoospores or sporangia number, or a reduction in the integrity of the chytrid cells.
# [2] = system: Haematococcus pluvialis (Strain 1)
compound,measurement,setting,value
O=C(NC(=O)c1c(F)cccc1F)Nc1cc(Cl)c(OC(F)(F)C(F)C(F)(F)F)cc1Cl (stereo not drawn) [Lufenuron],microscope observation of pure chytrid culture,pure chytrid culture; after 1 hour,swimming zoospores
same,microscope observation of pure chytrid culture,pure chytrid culture; after 24 hours,Swimming zoospores
same,microscope observation of pure chytrid culture,pure chytrid culture; after 48 hours and 72 hours,heavy bacteria with sporangia and zoospores
same,microscope observation of infected red cyst culture,"chytrids; 0.01% of culture volume, after 24 and 48 hours",swimming zoospores and positive infection
same,microscope observation of infected red cyst culture,"chytrids; 0.01% of culture volume, after 72 hours","Some swimming zoospores, Ochromonas (single-celled, motile, golden-brown alga), and active infection"
same,microscope observation of infected red cyst culture,"chytrids; 0.10% of culture volume, after 24 and 48 hours","dead sporangia, some infection, and active zoospores"
same,microscope observation of infected red cyst culture,"chytrids; 0.10% of culture volume, after 72 hours",Some swimming zoospores and active infection
same,microscope observation of infected red cyst culture,"chytrids; 1.00% of culture volume, after 24 hours",dead sporangia and zoospores attached to cyst cells
same,microscope observation of infected red cyst culture,"chytrids; 1.00% of culture volume, after 48 hours","Ochromonas, bacteria, dead sporangia, zoospores attached to cyst cells, and few swimming zoospores"
same,microscope observation of infected red cyst culture,"chytrids; 1.00% of culture volume, after 72 hours","Ochromonas, no active infection, and no zoospores"
"[Na+].[OH-] [NaOH, sodium hydroxide]",reduction in chytrid zoospores or sporangia number or integrity,[1],not a reduction in chytrid zoospores or sporangia number or integrity
bleach,known tolerance of Haematococcus pluvialis (Strain 1),[2],0.00375 mL/L
